Experiment [1] addresses T1, ERβ (Homo sapiens, UniProt Q92731). The experiment can be described thus: Homogeneous in vitro functional assay, coactivator recruitment (FRET). Format: biochemical. The following applies: for selectivity for ERβ: ERβ over ERα, functional assay. Here is the method: (§1) Structures 15 and 15′ were tested in a functional assay for ERβ and ERα as described in Liu J. et al. A Homogeneous in Vitro Functional Assay for Estrogen Receptors: Coactivator Recruitment. Mol Endocrinology 17, 346-355 (2003). Briefly, a homogeneous in vitro functional assay for measuring ligand-dependent transactivation function of ERαa and ERβ was used to measure selectivity of structures 15 and 15′ as agonists for the two classes of receptors. Briefly, agonist binding of Structures 15 and 15′ were assessed by measuring Fluorescence Resonance Energy Transfer (FRET) between europium that is associated with ligand binding domains of ERα and ERβ, and allophycocyanine that is associated with co-activator peptide that is recruited to the LBD in response to agonist binding.
Target sequence in this assay (Q92731 264-498 limits assumed): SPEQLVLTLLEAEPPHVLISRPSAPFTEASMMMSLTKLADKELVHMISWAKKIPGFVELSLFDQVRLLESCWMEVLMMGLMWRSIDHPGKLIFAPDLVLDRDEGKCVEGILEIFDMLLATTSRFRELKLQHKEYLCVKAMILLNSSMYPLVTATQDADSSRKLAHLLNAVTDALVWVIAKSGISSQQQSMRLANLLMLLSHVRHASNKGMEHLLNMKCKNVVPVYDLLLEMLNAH

For experiment [2], the target named is T2, ERα (Homo sapiens, UniProt P03372).
T2 sequence (P03372 311-547 limits assumed): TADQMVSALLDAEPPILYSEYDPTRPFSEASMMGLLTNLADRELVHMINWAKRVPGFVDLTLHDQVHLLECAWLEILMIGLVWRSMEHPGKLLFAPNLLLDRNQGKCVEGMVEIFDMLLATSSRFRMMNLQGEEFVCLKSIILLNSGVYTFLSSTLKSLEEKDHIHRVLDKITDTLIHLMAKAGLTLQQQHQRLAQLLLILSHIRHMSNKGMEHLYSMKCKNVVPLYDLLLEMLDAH
Described as above. The following applies: FIG. 1. In kind it is biochemical. Here is the method: as §1

Experiment [3] concerns the target T1, ERβ. The experiment can be described thus: Binding assay, inhibition of [3H] estradiol binding to hER. Particulars: FIG. 2. Here is the method: (§2) Structures 3 and 3' were tested in a binding assay for ERβ and ERα as described in Obourn […]. & Notides A. C. Hormone-and DNA-Binding Mechanisms of the Recombinant Human Estrogen Receptor. Biochemistry 32, 6229-6236 (1993). Briefly, agonist binding of Structure 3 and Structure 3' to ERα and ERβ were assessed by Scatchard analysis measuring inhibition of [^3H] estradiol binding to hER by Structure 3 and 3'.
Target sequence in this assay (Q92731 whole entry): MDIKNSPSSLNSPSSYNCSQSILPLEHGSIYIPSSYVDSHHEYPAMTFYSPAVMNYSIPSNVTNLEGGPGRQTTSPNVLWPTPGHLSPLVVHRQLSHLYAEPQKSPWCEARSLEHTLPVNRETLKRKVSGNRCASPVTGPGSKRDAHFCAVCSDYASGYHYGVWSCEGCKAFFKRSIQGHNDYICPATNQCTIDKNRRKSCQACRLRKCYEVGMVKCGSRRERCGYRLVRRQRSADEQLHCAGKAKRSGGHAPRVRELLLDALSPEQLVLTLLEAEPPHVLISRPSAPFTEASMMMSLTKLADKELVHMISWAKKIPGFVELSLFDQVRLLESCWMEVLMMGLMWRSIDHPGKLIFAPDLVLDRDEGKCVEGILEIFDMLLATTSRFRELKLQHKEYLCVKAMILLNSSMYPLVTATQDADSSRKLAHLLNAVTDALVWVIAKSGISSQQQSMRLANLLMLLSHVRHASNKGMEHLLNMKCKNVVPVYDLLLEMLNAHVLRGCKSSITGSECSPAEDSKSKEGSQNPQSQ

Experiment [4] has as its target T3, ERα (Homo sapiens, UniProt P03372).
T3 sequence (P03372 1-595): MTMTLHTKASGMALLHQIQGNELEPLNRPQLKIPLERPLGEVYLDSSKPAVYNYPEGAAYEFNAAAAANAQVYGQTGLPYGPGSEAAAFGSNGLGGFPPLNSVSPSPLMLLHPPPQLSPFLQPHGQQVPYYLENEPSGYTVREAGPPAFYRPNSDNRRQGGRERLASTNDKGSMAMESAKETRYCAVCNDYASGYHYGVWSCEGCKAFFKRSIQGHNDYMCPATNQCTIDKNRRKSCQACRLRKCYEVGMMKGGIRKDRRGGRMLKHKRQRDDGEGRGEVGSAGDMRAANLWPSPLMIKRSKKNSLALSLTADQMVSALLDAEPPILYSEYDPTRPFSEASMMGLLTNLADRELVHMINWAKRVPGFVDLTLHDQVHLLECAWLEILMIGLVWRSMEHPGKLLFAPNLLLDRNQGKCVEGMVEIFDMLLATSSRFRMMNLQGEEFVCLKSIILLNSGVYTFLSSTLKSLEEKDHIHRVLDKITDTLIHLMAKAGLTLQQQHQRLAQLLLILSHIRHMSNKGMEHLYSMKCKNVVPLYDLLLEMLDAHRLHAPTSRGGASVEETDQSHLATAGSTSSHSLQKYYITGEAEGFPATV
Described as above. Here is the method:
as §2

The target in experiment [5] is T1, ERβ. The experiment can be described thus: Dual estrogen receptor TR-FRET functional assay. Format: biochemical. Particulars: dual ER TR-FRET assay, FIG. 3. Here is the method: (§3) Structures 3 and 3' were tested in a functional assay for ERβ and ERα as described in […]., Puetter V., Otto C. Parczyk K. & Bader B. A Dual Estrogen Receptor TR-FRET Assay for Simultaneous Measurement of Steroid Site Binding and Coactivator Recruitment. J Biomolec Screening 15, 268-278 (2010). Briefly, agonist binding of Structures 3 and 3' to ERα and ERβ were assessed by a dual estrogen receptor TR-FRET assay.
Target sequence in this assay (Q92731 whole entry): as the sequence (Q92731 whole entry) above

The target of experiment [6] is T3, ERα. The experiment can be described thus: Dual estrogen receptor TR-FRET functional assay. In kind it is biochemical. Particulars: dual ER TR-FRET assay. Here is the method: as §3
Background: In TR-FRET formats the signal depends on donor and acceptor labels being close together.

`COC(=O)CC[C@H]1C[C@H]2[C@@H]3CCc4cc(O)ccc4[C@H]3CC[C@]2(C)[C@H]1O` [Compound 15]: at ERβ [1], the “selectivity for ERβ” value is listed as more than 10 fold. Further, the concentration giving a half-maximal response (EC50) on ERβ [1] (functional coactivator recruitment FRET assay, FIG. 1) is approximately 10000 nM; on ERα [2], more than 100000 nM.
With `COC(=O)CC[C@@H]1C[C@H]2[C@@H]3CCc4cc(O)ccc4[C@H]3CC[C@]2(C)[C@H]1O` [Compound 15′, reference compound], on ERβ [1], the “selectivity for ERβ” value is on record as approximately 2 fold.
Turning to `CCOC(=O)[C@H]1C[C@H]2[C@@H]3CCc4cc(O)ccc4[C@H]3CC[C@]2(C)[C@H]1O` [Structure 3], the figures for the IC50 at ERβ [3] and on ERα [4] (FIG. 2) were 100 nM and 78 nM, respectively. The concentration giving a half-maximal response (EC50) on ERβ [5] was found to be 3000 nM; at ERα [6] (FIG. 3A), 1080 nM.
As for `CCOC(=O)[C@@H]1C[C@H]2[C@@H]3CCc4cc(O)ccc4[C@H]3CC[C@]2(C)[C@H]1O` [Structure 3′, reference compound], the IC50 amounted to 140 nM on ERβ [3] and 1.46 nM on ERα [4] (FIG. 2B). The half-maximal effective concentration (EC50) at ERβ [5] is more than 10000 nM; on ERα [6] (FIG. 3B), 5.92 nM.

What is called EC50 is the midpoint of the concentration-response curve. Read a high EC50 as a need for much substance. In general, IC50 refers to the midpoint of a concentration-inhibition curve.

Values taken from patent US20240294566A1, “ESTROGEN RECEPTOR BETA SELECTIVE LIGANDS” (Or-Genix Therapeutics, Inc., priority 2016, published 2024).
